{"source": "patent EP0334146A1", "about": "“Morpholines and morpholine-N-oxides, medicines containing these compounds and process for their preparation” (Dr. Karl Thomae GmbH, priority 1988, dated 1989)", "test_system": "Mäusen", "test": "Cardiac side effects: heart rate by ECG-triggered tachograph during the blood glucose test", "type": "in vivo", "details": "Dose 3,0 mg/kg oral; one hour after application; values in brackets = not significant (p > 0.05)", "text": "Das Auftreten von unerwünschten Nebenwirkungen auf das Herz konnte für die erfindungsgemäßen Verbindungen für den therapeutisch angestrebten stoffwechselaktiven Dosisbereich ausgeschlossen werden. Als Nachweis diente die Messung der Herzfrequenz an Mäusen während der Testung auf blutzuckersenkende Wirkung (s.o.). Eine Stunde nach der oralen Applikation der Verbindungen wurde die Herzfrequenz mittels EKG-getriggertem Tachographen bestimmt. Die nachfolgende Tabelle gibt die Änderung der Herzfrequenz in % der Kontrollgruppe wieder.", "data": [{"smiles": "CC(Cc1ccc(OCC(=O)O)cc1)N1CCOC(c2cccc(Cl)n2)C1", "note": "(stereo not shown) [Beispiel 4, N-[2-(4-Carboxymethoxyphenyl)-1-methylethyl]-2-(6-chlor-pyridin-2-yl)-morpholin]", "values": [{"measurement": "Änderung der Herzfrequenz, % Änderung vom Wert der Kontrollgruppe", "value": "( 0 ) %"}]}]}
